Measured values: ChEMBL document CHEMBL4033752, “Discovery of Potent and Selective Tricyclic Inhibitors of Bruton's Tyrosine Kinase with Improved Druglike Properties” (ACS Med Chem Lett, 2017)
Activity calls are given as the source filed them. The calls are words filed in the database; no cut-off is given here.

What was measured:
[1] = Oral bioavailability in rat at 5 mg/kg; assay type: ADME, organism-based; conditions: in vivo
[2] = molecular target: Tyrosine-protein kinase BTK (Mus musculus, UniProt P35991)
Tyrosine-protein kinase BTK (Mus musculus, UniProt P35991), sequence (P35991 whole entry): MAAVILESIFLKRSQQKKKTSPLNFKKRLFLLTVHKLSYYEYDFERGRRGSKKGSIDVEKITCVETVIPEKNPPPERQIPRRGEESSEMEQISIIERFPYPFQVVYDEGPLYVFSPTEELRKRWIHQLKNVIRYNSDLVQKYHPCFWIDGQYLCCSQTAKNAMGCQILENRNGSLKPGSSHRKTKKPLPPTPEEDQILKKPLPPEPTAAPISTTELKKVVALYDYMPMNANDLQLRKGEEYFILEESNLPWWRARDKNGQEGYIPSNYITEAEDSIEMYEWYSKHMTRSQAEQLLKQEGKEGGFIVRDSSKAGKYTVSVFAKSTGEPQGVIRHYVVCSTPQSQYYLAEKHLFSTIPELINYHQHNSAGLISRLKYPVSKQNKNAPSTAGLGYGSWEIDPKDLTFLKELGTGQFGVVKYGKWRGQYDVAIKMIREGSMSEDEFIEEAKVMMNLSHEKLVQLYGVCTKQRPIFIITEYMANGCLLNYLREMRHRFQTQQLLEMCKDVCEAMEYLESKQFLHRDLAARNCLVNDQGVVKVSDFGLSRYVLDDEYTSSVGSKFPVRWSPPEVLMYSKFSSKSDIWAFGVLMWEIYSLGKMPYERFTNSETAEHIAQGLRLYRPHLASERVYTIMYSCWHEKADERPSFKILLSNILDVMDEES

[3] = molecular target: T1, Tyrosine-protein kinase BTK (Homo sapiens, UniProt Q06187)
T1 sequence (Q06187 whole entry): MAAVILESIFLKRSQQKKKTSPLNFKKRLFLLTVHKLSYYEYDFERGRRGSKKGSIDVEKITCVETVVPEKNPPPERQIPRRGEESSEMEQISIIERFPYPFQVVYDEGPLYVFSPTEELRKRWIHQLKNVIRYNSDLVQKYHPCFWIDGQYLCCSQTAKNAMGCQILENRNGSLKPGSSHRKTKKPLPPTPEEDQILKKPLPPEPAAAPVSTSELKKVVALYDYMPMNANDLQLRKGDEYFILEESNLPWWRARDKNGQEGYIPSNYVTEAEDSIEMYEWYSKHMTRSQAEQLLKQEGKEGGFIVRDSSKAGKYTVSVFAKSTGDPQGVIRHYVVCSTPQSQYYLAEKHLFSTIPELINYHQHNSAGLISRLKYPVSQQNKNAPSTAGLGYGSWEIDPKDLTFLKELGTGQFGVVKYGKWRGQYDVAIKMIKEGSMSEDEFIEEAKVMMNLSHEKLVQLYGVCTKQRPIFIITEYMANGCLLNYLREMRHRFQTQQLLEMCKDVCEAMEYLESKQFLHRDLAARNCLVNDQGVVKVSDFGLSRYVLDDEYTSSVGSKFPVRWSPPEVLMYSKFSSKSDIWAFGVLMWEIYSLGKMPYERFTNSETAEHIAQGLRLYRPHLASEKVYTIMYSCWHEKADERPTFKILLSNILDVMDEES
Description: Inhibition of recombinant human full length His-tagged BTK expressed in baculovirus expression system by Z-LYTE assay

[4] = Total clearance in rat at 1 mg/kg, iv; assay type: ADME, organism-based; conditions: in vivo
[5] = tested on: Rattus norvegicus; test: Antiinflammatory activity in Lewis rat CIA model assessed as reduction in ankle thickness at 0.05 mg/kg measured between day 10 and day 17; assay type: functional, organism-based
[6] = Apparent permeability from apical side to basolateral side in MDCK cells at 10 uM after 3 hrs by LC-MS/MS analysis; assay type: ADME, cell-based, Canis lupus familiaris; conditions: dog
[7] = buffer, pH 7.4
Description: Kinetic solubility of the compound at pH 7.4

[8] = molecular target: T1, Tyrosine-protein kinase BTK; remark: listed apart in the source
Description: Inhibition of BTK in goat anti-human IgM F(ab')2-stimulated human whole blood assessed as suppression of BCR-induced CD69 expression on B cells preincubated for 1 hr followed by blood stimulation measured after 18 hrs by FACS analysis

[9] = Total clearance in cynomolgus monkey; assay type: ADME, Macaca fascicularis; conditions: in vivo
[10] = Total clearance in mouse; assay type: ADME, organism-based; conditions: in vivo
[11] = tested on: Canis familiaris; test: Oral bioavailability in dog at 5 mg/kg; assay type: ADME, organism-based, Canis lupus familiaris; conditions: in vivo
[12] = Total clearance in dog; assay type: ADME, Canis lupus familiaris; conditions: in vivo
[13] = tested on: Mus musculus; test: Oral bioavailability in mouse at 100 mg/kg; assay type: ADME, organism-based; conditions: in vivo
[14] = tested on: Mus musculus; test: Oral bioavailability in mouse at 5 mg/kg; assay type: ADME, organism-based; conditions: in vivo
[15] = tested on: Rattus norvegicus; test: Oral bioavailability in rat at 100 mg/kg; assay type: ADME, organism-based; conditions: in vivo
[16] = tested on: Rattus norvegicus; test: Antiinflammatory activity in Lewis rat CIA model assessed as reduction in ankle thickness administered via oral gavage as bid measured between day 10 and day 17; assay type: functional

SMILES	bioavailability [1]	IC50 [2]	IC50 [3]	clearance [4]	Papp A→B at 3 h, 10 µM [6]	Kinetic_solubility [7]	other results
Cc1c(NC(=O)c2cc3c(s2)CCCC3)cccc1-c1cc(Nc2ccncn2)c(=O)n(C)c1	45%	740 nM	42 nM	2 mL/min/kg			
C[C@@H]1C[C@H]2[C@@H]3CCC4=CC(=O)C=C[C@]4(C)[C@@]3(F)[C@@H](O)C[C@]2(C)[C@@]1(O)C(=O)CO							Activity [5]: Active
Cn1cc(-c2cc(F)cc(N3CCn4c(cc5c4CCCC5)C3=O)c2CO)cc(Nc2ccc(N3CCN(C4COC4)CC3)cn2)c1=O	27%	10 nM		20 mL/min/kg	> 10 ×10⁻⁶ cm/s	73 µM	
CN1CCN(c2ccc(Nc3cc(-c4cccc(N5CCn6c(cc7c6CCCC7)C5=O)c4CO)cn(C)c3=O)nc2)CC1	20%	107 nM	4 nM	40 mL/min/kg	1 to 10 ×10⁻⁶ cm/s	115 µM	IC50 [8]: 45 nM
CN1CCN(c2ccc(Nc3cc(-c4cc(F)cc(N5CCn6c(cc7c6CCCC7)C5=O)c4CO)cn(C)c3=O)nc2)CC1	52%	22 nM		37 mL/min/kg	1 to 10 ×10⁻⁶ cm/s	71 µM	
Cn1cc(-c2cccc(N3CCc4cc(C(C)(C)C)ccc4C3=O)c2CO)cc(Nc2ccncn2)c1=O		51 nM				2 µM	
Cn1cc(-c2cccc(N3CCc4c(sc5c4CCCC5)C3=O)c2CO)cc(Nc2ccncn2)c1=O	90%						
Cn1cc(-c2cccc(N3CCc4c(sc5c4CC(C)(C)C5)C3=O)c2CO)cc(Nc2ccncn2)c1=O							clearance [9]: 17 mL/min/kg; clearance [10]: 22 mL/min/kg; F [11]: 27%; clearance [12]: 7 mL/min/kg; F [13]: 45%; F [14]: 77%; F [15]: 23%; Activity [16]: Dose-dependent effect
CN1CCN(c2ccc(Nc3cc(-c4cccc(N5CCc6c(sc7c6CC(C)(C)C7)C5=O)c4CO)cn(C)c3=O)nc2)CC1	37%			29 mL/min/kg			
Cn1cc(-c2cccc(N3CCn4c(cc5c4CCCC5)C3=O)c2CO)cc(Nc2ccc(N3CCN(C4COC4)CC3)cn2)c1=O	46%	137 nM	8 nM	14 mL/min/kg	1 to 10 ×10⁻⁶ cm/s	99 µM	IC50 [8]: 69 nM
